Reference: paper PMC10402865, “Fragment-based design, synthesis and biological evaluation of theophylline derivatives as ATAD2 inhibitors in BT-549 cells” (Journal of Enzyme Inhibition and Medicinal Chemistry, 2023)

Experiments:
[1] = target: T1, ATAD2 recombinant bromodomain protein (Homo sapiens, UniProt Q6PL18); experiment: ATAD2 enzymatic assay by TR-FRET technology; assay type: binding; conditions: for ATAD2 inhibitory activity, in words / IC50: TR-FRET; for IC50: mean ± SD, read-out: Kinase inhibitory activity (IC50, μM) ATAD2
T1 sequence (Q6PL18 980-1092 limits assumed): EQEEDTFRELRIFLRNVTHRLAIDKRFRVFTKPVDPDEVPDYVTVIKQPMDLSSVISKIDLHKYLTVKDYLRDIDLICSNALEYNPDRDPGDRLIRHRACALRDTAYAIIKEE
Experimental: The assay was performed by TR-FRET technology using recombinant bromodomain and BET Ligand[8]. The compounds were diluted with indicated folds in 5% DMSO in reaction buffer and 2 µl of the dilution was added to a 20 µl reaction so that the final concentration of DMSO is 0.5% in all of the reactions. The 20 µl reaction mixture consists of the ATAD2 recombinant bromodomain protein, the indicated amount of the inhibitor, ligand, and the reactive dyes. The reaction mixture was incubated for 3 h before reading the TR-FRET signal. Fluorescence signals for both the donor and acceptor dyes were measured using a Tecan Infinite M1000 plate reader. Binding experiments were performed in duplicate at each concentration and the data were analysed using GraphPad Prism.

BT-549 cells = experiment: Cell viability (MTT) assay, anti-proliferative activity; assay type: cell-based; conditions: Homo sapiens, MTT, 24 h, mean ± SD
Experimental: BT-549 cells were seeded at a density of 5 × 10^4 cells/ml in a 96-well plate. Following a 24-h incubation period, the cells were exposed to various concentrations of different compounds for the specified durations. Cell viability was evaluated using an MTT assay.

Row | SMILES | ATAD2 inhibitory activity, in words [1] | IC50 [1] | IC50 (BT-549 cells) | melting point | increase in ATAD2 activity compared to 19d [1]
1 | Cn1c(=O)c2ncn(CC(=O)Nc3cccc(C(=O)N4CCSCC4)c3)c2n(C)c1=O [Compound 15a, 2–(1,3-dimethyl-2,6-dioxo-1,2,3,6-tetrahydro-9H-purin-9-yl)-N-(3-(thiomorpholine-4-carbonyl)phenyl)acetamide] | without ATAD2 inhibition activity | > 25 µM | > 30 µM | 246 to 248 °C | 
2 | Cc1ccc(C(=O)N2CCSCC2)cc1NC(=O)Cn1cnc2c(=O)n(C)c(=O)n(C)c21 [Compound 15b, 2–(1,3-dimethyl-2,6-dioxo-1,2,3,6-tetrahydro-9H-purin-9-yl)-N-(2-methyl-5-(thiomorpholine-4-carbonyl)phenyl)acetamide] | weak inhibitory activities against ATAD2 | 19.3 ± 2.35 µM | > 30 µM | 251 to 252 °C | 
3 | COc1ccc(C(=O)N2CCSCC2)cc1NC(=O)Cn1cnc2c(=O)n(C)c(=O)n(C)c21 [Compound 15c, 2–(1,3-dimethyl-2,6-dioxo-1,2,3,6-tetrahydro-9H-purin-9-yl)-N-(2-methoxy-5-(thiomorpholine-4-carbonyl)phenyl)acetamide] | weak inhibitory activities against ATAD2 | 14.8 ± 1.78 µM | > 30 µM | 257 to 258 °C | 
4 | Cn1c(=O)c2ncn(CC(=O)Nc3cccc(C(=O)N4CCS(=O)(=O)CC4)c3)c2n(C)c1=O [Compound 15d, 2–(1,3-dimethyl-2,6-dioxo-1,2,3,6-tetrahydro-9H-purin-9-yl)-N-(3–(1,1-dioxidothiomorpholine-4-carbonyl)phenyl)acetamide] |  | > 25 µM | > 30 µM | 224 to 226 °C | 
5 | Cc1ccc(C(=O)N2CCS(=O)(=O)CC2)cc1NC(=O)Cn1cnc2c(=O)n(C)c(=O)n(C)c21 [Compound 15e, 2–(1,3-dimethyl-2,6-dioxo-1,2,3,6-tetrahydro-9H-purin-9-yl)-N-(5–(1,1-dioxidothiomorpholine-4-carbonyl)-2-methylphenyl)acetamide] |  | > 25 µM | > 30 µM | 231 to 233 °C | 
6 | COc1ccc(C(=O)N2CCS(=O)(=O)CC2)cc1NC(=O)Cn1cnc2c(=O)n(C)c(=O)n(C)c21 [Compound 15f, 2–(1,3-dimethyl-2,6-dioxo-1,2,3,6-tetrahydro-9H-purin-9-yl)-N-(5–(1,1-dioxidothiomorpholine-4-carbonyl)-2-methoxyphenyl)acetamide] |  | > 25 µM | > 30 µM |  | 
7 | Cn1c(=O)c2ncn(CC(=O)Nc3cccc(C(=O)N4CCOCC4)c3)c2n(C)c1=O [Compound 15g, 2–(1,3-dimethyl-2,6-dioxo-1,2,3,6-tetrahydro-9H-purin-9-yl)-N-(3-(morpholine-4-carbonyl)phenyl)acetamide] | weak inhibition potency | 21.2 ± 3.17 µM | > 30 µM | 266 to 268 °C | 
8 | Cc1ccc(C(=O)N2CCOCC2)cc1NC(=O)Cn1cnc2c(=O)n(C)c(=O)n(C)c21 [Compound 15h, 2–(1,3-dimethyl-2,6-dioxo-1,2,3,6-tetrahydro-9H-purin-9-yl)-N-(2-methyl-5-(morpholine-4-carbonyl)phenyl)acetamide] |  | > 25 µM | > 30 µM | 270 to 271 °C | 
9 | COc1ccc(C(=O)N2CCOCC2)cc1NC(=O)Cn1cnc2c(=O)n(C)c(=O)n(C)c21 [Compound 15i, 2–(1,3-dimethyl-2,6-dioxo-1,2,3,6-tetrahydro-9H-purin-9-yl)-N-(2-methoxy-5-(morpholine-4-carbonyl)phenyl)acetamide] |  | 11.3 ± 2.79 µM | 28 ± 3.61 µM | 278 to 279 °C | 
10 | Cn1c(=O)c2ncn(CC(=O)Nc3cc(C(=O)N4CCOCC4)ccc3Cl)c2n(C)c1=O [Compound 15j, N-(2-chloro-5-(morpholine-4-carbonyl)phenyl)-2–(1,3-dimethyl-2,6-dioxo-1,2,3,6-tetrahydro-9H-purin-9-yl)acetamide] |  | 15.2 ± 3.63 µM | 26.1 ± 3.77 µM | 262 to 264 °C | 
11 | Cn1c(=O)c2ncn(CC(=O)Nc3cccc(C(=O)N4CCOCC4)c3F)c2n(C)c1=O [Compound 15k, 2–(1,3-dimethyl-2,6-dioxo-1,2,3,6-tetrahydro-9H-purin-9-yl)-N-(2-fluoro-3-(morpholine-4-carbonyl)phenyl)acetamide] |  | > 25 µM | > 30 µM | 265 to 267 °C | 
12 | Cn1c(=O)c2ncn(CC(=O)Nc3cccc(C(=O)NC4CC4)c3)c2n(C)c1=O [Compound 19a, N-cyclopropyl-3–(2-(1,3-dimethyl-2,6-dioxo-1,2,3,6-tetrahydro-9H-purin-9-yl)acetamido)benzamide] |  | 13.8 ± 2.57 µM | > 30 µM | 222 to 224 °C | 
13 | Cc1ccc(C(=O)NC2CC2)cc1NC(=O)Cn1cnc2c(=O)n(C)c(=O)n(C)c21 [Compound 19b, N-cyclopropyl-3–(2-(1,3-dimethyl-2,6-dioxo-1,2,3,6-tetrahydro-9H-purin-9-yl)acetamido)-4-methylbenzamide] |  | 9.06 ± 1.81 µM | 18.7 ± 3.06 µM | 218 to 219 °C | 
14 | COc1ccc(C(=O)NC2CC2)cc1NC(=O)Cn1cnc2c(=O)n(C)c(=O)n(C)c21 [Compound 19c, N-cyclopropyl-3–(2-(1,3-dimethyl-2,6-dioxo-1,2,3,6-tetrahydro-9H-purin-9-yl)acetamido)-4-methoxybenzamide] |  | 9.19 ± 1.9 µM | 21.9 ± 4.03 µM | 231 to 233 °C | 
15 | Cn1c(=O)c2ncn(CC(=O)Nc3cccc(C(=O)NC4CCCC4)c3)c2n(C)c1=O [Compound 19d, N-cyclopentyl-3–(2-(1,3-dimethyl-2,6-dioxo-1,2,3,6-tetrahydro-9H-purin-9-yl)acetamido)benzamide] |  | 5.13 ± 0.72 µM | 17.9 ± 3.54 µM | 207 to 208 °C | 
16 | Cc1ccc(C(=O)NC2CCCC2)cc1NC(=O)Cn1cnc2c(=O)n(C)c(=O)n(C)c21 [Compound 19e, N-cyclopentyl-3–(2-(1,3-dimethyl-2,6-dioxo-1,2,3,6-tetrahydro-9H-purin-9-yl)acetamido)-4-methylbenzamide] |  | 1.78 ± 0.39 µM | 11.3 ± 2.7 µM | 211 to 213 °C | about a three-fold increase in activity
17 | Cn1c(=O)c2ncn(CC(=O)Nc3cccc(C(=O)NC4CCCCC4)c3)c2n(C)c1=O [Compound 19g, N-cyclohexyl-3–(2-(1,3-dimethyl-2,6-dioxo-1,2,3,6-tetrahydro-9H-purin-9-yl)acetamido)benzamide] |  | 17.3 ± 3.92 µM | 25.1 ± 4.27 µM | 195 to 197 °C | 
18 | Cc1ccc(C(=O)NC2CCCCC2)cc1NC(=O)Cn1cnc2c(=O)n(C)c(=O)n(C)c21 [Compound 19h, N-cyclohexyl-3–(2-(1,3-dimethyl-2,6-dioxo-1,2,3,6-tetrahydro-9H-purin-9-yl)acetamido)-4-methylbenzamide] |  | 19.7 ± 4.38 µM | 11.7 ± 2.46 µM | 199 to 201 °C | 
19 | COc1ccc(C(=O)NC2CCCCC2)cc1NC(=O)Cn1cnc2c(=O)n(C)c(=O)n(C)c21 [Compound 19i, N-cyclohexyl-3–(2-(1,3-dimethyl-2,6-dioxo-1,2,3,6-tetrahydro-9H-purin-9-yl)acetamido)-4-methoxybenzamide] |  | 12.3 ± 3.06 µM | 22 ± 3.35 µM | 185 to 187 °C | 
20 | Cc1cc2c(cc1N)n(C)c(=O)n2C [TS-1] |  | 411 µM |  |  | 
21 | Cn1c(=O)c2[nH]cnc2n(C)c1=O [TS-2, theophylline] |  | 324 µM |  |  | 
